# In ChEMBL document CHEMBL1150336, “Synthesis and antibacterial activity of novel pyrido[1,2,3-de][1,4]benzoxazine-6-carboxylic acid derivatives carrying the 3-cyclopropylaminomethyl-4-substituted-1-pyrrolidinyl group as a C-10 substituent” (J Med Chem, 2008):
# Tests used:
# Klebsiella pneumoniae = experiment: Antibacterial activity against Klebsiella pneumoniae IID5209 after 18 hrs by agar dilution method; assay type: functional
# Escherichia coli = experiment: Antibacterial activity against Escherichia coli NIHJ JC2 after 18 hrs by agar dilution method; assay type: functional; details: NIHJ JC2, 18 h
# Enterococcus faecalis [1] = experiment: Antibacterial activity against Enterococcus faecalis IID682 after 18 hrs by agar dilution method; assay type: functional
# Streptococcus pyogenes = experiment: Antibacterial activity against Streptococcus pyogenes IID692 after 18 hrs by agar dilution method; assay type: functional
# Staphylococcus aureus [2] = experiment: Antibacterial activity against Staphylococcus aureus Smith after 18 hrs by agar dilution method; assay type: functional
# Haemophilus influenzae = experiment: Antibacterial activity against Haemophilus influenzae IID983 after 18 hrs by agar dilution method; assay type: functional
# Streptococcus pneumoniae [3] = experiment: Antibacterial activity against Streptococcus pneumoniae type 3 after 18 hrs by agar dilution method; assay type: functional
# Pseudomonas aeruginosa = experiment: Antibacterial activity against Pseudomonas aeruginosa IID1210 after 18 hrs by agar dilution method; assay type: functional
# Staphylococcus aureus [4] = experiment: Antibacterial activity against quinoline-resistant Staphylococcus aureus OITI MR1-1002 isolate after 18 hrs by agar dilution method; assay type: functional
# Streptococcus pneumoniae [5] = experiment: Antibacterial activity against quinoline-resistant Streptococcus pneumoniae no.55 isolate after 18 hrs by agar dilution method; assay type: functional
# Enterococcus faecalis [6] = experiment: Antibacterial activity against quinoline-resistant Enterococcus faecalis No.15 isolate after 18 hrs by agar dilution method; assay type: functional
# Enterococcus faecalis [7] = experiment: Antibacterial activity against vancomycin-resistant Enterococcus faecalis KU1856 after 18 hrs by agar dilution method; assay type: functional
# Enterococcus faecalis [8] = experiment: Antibacterial activity against vancomycin-resistant Enterococcus faecalis KU1866 after 18 hrs by agar dilution method; assay type: functional
# Mus musculus [9] = experiment: Toxicity in ICR mouse assessed as mortality administered as single dose at 100 mg/kg, iv after 7 days; assay type: organism-based; parameters: dose 100 mg/kg, route intravenous; details: in vivo, 168 h
# Mus musculus [10] = experiment: Toxicity in ICR mouse assessed as mortality administered as single dose at 200 mg/kg, iv after 7 days; assay type: organism-based; parameters: dose 200 mg/kg, route intravenous; details: in vivo, 168 h
# Mus musculus [11] = experiment: Toxicity in intracerebroventricularly dosed ICR mouse assessed as induction of convulsion after 2 hrs in absence of fenbufen; assay type: organism-based; details: in vivo, icv_or_intrathecal
# Mus musculus [12] = experiment: Toxicity in intracerebroventricularly dosed ICR mouse assessed as induction of convulsion after 2 hrs in presence of fenbufen; assay type: organism-based; details: in vivo, icv_or_intrathecal
# Mus musculus [13] = experiment: Phototoxicity in orally dosed ICR mouse assessed as skin erythema after 72 hrs; assay type: organism-based; details: in vivo, po
# DNA gyrase [14] = molecular target: T1, DNA gyrase (Staphylococcus aureus, UniProt P0A0K8+P20831); experiment: Inhibition of Staphylococcus aureus MS5935 wild type DNA gyrase-mediated supercoiling activity; assay type: protein-complex assay
# T1 sequence (P0A0K8 whole entry): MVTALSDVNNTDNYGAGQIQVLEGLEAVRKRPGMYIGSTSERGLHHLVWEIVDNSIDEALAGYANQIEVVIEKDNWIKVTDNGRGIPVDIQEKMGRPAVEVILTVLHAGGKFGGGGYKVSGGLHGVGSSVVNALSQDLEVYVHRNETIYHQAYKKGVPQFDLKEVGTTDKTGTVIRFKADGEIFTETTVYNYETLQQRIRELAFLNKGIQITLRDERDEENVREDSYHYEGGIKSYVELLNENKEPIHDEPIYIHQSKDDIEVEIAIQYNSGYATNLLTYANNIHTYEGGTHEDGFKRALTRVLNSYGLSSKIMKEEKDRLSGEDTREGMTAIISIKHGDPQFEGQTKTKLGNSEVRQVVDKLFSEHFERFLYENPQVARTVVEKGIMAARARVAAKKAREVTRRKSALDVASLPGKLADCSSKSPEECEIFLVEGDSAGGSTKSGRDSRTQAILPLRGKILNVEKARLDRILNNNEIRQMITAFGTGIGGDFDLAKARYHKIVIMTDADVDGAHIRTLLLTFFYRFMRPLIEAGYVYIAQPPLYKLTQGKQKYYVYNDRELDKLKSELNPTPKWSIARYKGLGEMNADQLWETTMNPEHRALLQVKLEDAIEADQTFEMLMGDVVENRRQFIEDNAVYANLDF
# T1 sequence (P20831 whole entry): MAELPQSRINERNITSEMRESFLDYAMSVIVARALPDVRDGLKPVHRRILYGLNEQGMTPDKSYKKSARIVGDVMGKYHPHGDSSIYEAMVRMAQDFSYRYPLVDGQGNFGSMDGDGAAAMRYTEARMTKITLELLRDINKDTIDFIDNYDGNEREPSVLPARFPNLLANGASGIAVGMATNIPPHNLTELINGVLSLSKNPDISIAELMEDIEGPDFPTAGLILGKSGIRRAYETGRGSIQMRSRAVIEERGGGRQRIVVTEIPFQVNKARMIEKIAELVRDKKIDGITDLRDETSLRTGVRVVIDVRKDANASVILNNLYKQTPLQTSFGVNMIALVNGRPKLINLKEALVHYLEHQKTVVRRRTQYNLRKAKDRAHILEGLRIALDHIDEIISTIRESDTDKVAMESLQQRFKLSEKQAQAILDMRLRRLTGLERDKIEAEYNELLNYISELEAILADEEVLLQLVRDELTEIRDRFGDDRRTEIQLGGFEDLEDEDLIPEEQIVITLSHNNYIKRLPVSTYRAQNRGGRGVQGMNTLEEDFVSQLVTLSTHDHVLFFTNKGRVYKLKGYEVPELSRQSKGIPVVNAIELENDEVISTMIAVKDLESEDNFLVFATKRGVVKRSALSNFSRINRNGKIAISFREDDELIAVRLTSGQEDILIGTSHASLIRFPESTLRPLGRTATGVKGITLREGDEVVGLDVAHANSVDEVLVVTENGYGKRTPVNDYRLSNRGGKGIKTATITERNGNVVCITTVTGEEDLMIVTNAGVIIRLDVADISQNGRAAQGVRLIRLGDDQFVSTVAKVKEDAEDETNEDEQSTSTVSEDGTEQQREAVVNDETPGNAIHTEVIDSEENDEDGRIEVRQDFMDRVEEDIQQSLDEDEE
# DNA gyrase [15] = molecular target: T1, DNA gyrase; experiment: Inhibition of quinoline-resistant Staphylococcus aureus MS5935 DNA gyrase-mediated supercoiling activity; assay type: protein-complex assay
# [16] = Inhibition of Staphylococcus aureus MS5935 wild type topoisomerase 4-mediated decatenation activity
# [17] = Inhibition of quinoline-resistant Staphylococcus aureus MS5935 topoisomerase 4-mediated decatenation activity
# Staphylococcus aureus [18] = experiment: Antibacterial activity against quinoline-resistant wild type Staphylococcus aureus MS5935 after 18 hrs by agar dilution method; assay type: functional
# Staphylococcus aureus [19] = experiment: Antibacterial activity against quinoline-resistant Staphylococcus aureus MS5935 containing single grlA mutation after 18 hrs by agar dilution method; assay type: functional
# Staphylococcus aureus [20] = experiment: Antibacterial activity against quinoline-resistant Staphylococcus aureus MS5935 containing single grlA and single gyrA mutation after 18 hrs by agar dilution method; assay type: functional
# Staphylococcus aureus [21] = experiment: Antibacterial activity against quinoline-resistant Staphylococcus aureus MS5935 containing double grlA and single gyrA mutation after 18 hrs by agar dilution method; assay type: functional
# Staphylococcus aureus [22] = experiment: Antibacterial activity against quinoline-resistant Staphylococcus aureus MS5935 containing double grlA and double gyrA mutation after 18 hrs by agar dilution method; assay type: functional
# Staphylococcus aureus [23] = experiment: Antibacterial activity against Staphylococcus aureus Smith infected in subcutaneously dosed ICR mouse administered 1 hr after bacterial challenge measured at 7 days post infection; assay type: functional; details: sc
# Staphylococcus aureus [24] = experiment: Antibacterial activity against Staphylococcus aureus Smith infected in po dosed ICR mouse administered 1 hr after bacterial challenge measured at 7 days post infection; assay type: functional
# Streptococcus pneumoniae [25] = experiment: Antibacterial activity against Streptococcus pneumoniae type 3 infected in subcutaneously dosed ICR mouse administered 1 hr after bacterial challenge measured at 7 days post infection; assay type: functional; details: sc
# Streptococcus pneumoniae [26] = experiment: Antibacterial activity against Streptococcus pneumoniae type 3 infected in po dosed ICR mouse administered 1 hr after bacterial challenge measured at 7 days post infection; assay type: functional
Structure (SMILES),MIC (Klebsiella pneumoniae),MIC (Escherichia coli),MIC (Enterococcus faecalis [1]),MIC (Streptococcus pyogenes),MIC (Staphylococcus aureus [2]),MIC (Haemophilus influenzae),MIC (Streptococcus pneumoniae [3]),MIC (Pseudomonas aeruginosa),MIC (Staphylococcus aureus [4]),MIC (Streptococcus pneumoniae [5]),MIC (Enterococcus faecalis [6]),MIC (Enterococcus faecalis [7]),MIC (Enterococcus faecalis [8]),Activity (Mus musculus [10]),Activity (Mus musculus [11]),Activity (Mus musculus [12]),also measured
C[C@H]1COc2c(N3C[C@H](CNC4CC4)[C@@H](F)C3)c(F)cc3c(=O)c(C(=O)O)cn1c23,0.125 µg/mL,0.016 µg/mL,0.125 µg/mL,0.125 µg/mL,0.016 µg/mL,0.008 µg/mL,0.063 µg/mL,4 µg/mL,16 µg/mL,2 µg/mL,4 µg/mL,2 µg/mL,4 µg/mL,–,–,–,–
C[C@H]1CN(c2c(F)cc3c(=O)c(C(=O)O)cn4c3c2OC[C@@H]4C)C[C@@H]1CNC1CC1,0.125 µg/mL,0.016 µg/mL,0.031 µg/mL,0.016 µg/mL,0.002 µg/mL,0.008 µg/mL,0.016 µg/mL,4 µg/mL,2 µg/mL,0.5 µg/mL,1 µg/mL,1 µg/mL,1 µg/mL,Toxic,> 40 µg,> 40 µg,Activity (Mus musculus [9]): Non-toxic
O=C(O)c1cn2c3c(c(N4C[C@H](CNC5CC5)[C@@H](F)C4)c(F)cc3c1=O)OC[C@@H]2CF,0.125 µg/mL,0.031 µg/mL,0.125 µg/mL,0.125 µg/mL,0.016 µg/mL,0.008 µg/mL,0.063 µg/mL,4 µg/mL,16 µg/mL,2 µg/mL,4 µg/mL,2 µg/mL,4 µg/mL,–,–,–,–
C[C@@H]1CN(c2c(F)cc3c(=O)c(C(=O)O)cn4c3c2OC[C@@H]4CF)C[C@@H]1CNC1CC1,0.063 µg/mL,0.016 µg/mL,0.063 µg/mL,0.031 µg/mL,0.008 µg/mL,0.004 µg/mL,0.016 µg/mL,2 µg/mL,0.5 µg/mL,0.125 µg/mL,1 µg/mL,1 µg/mL,1 µg/mL,Toxic,20 µg,10 µg,Activity (Mus musculus [13]): Non-toxic
O=C(O)c1cn(C2CC2)c2cc(N3CCNCC3)c(F)cc2c1=O [CIPROFLOXACIN],0.004 µg/mL,≤ 0.001 µg/mL,0.5 µg/mL,0.5 µg/mL,0.25 µg/mL,0.008 µg/mL,–,–,64 µg/mL,64 µg/mL,64 µg/mL,64 µg/mL,64 µg/mL,–,–,–,–
NC1CCN(c2c(F)cc3c(=O)c(C(=O)O)cn(C4CC4)c3c2Cl)C1 (stereo not given) [CLINAFLOXACIN],0.004 µg/mL,0.002 µg/mL,0.063 µg/mL,0.063 µg/mL,0.016 µg/mL,≤ 0.001 µg/mL,0.031 µg/mL,0.125 µg/mL,8 µg/mL,0.5 µg/mL,8 µg/mL,2 µg/mL,4 µg/mL,Non-toxic,10 µg,5 µg,Activity (Mus musculus [9]): Non-toxic; Activity (Mus musculus [13]): Toxic; IC50 (DNA gyrase [14]): 3.14 µM; IC50 (DNA gyrase [15]): 44.3 µM; IC50 [16]: 1.89 µg/mL; IC50 [17]: 13.9 µg/mL; MIC (Staphylococcus aureus [18]): 0.016 µg/mL; MIC (Staphylococcus aureus [19]): 0.063 µg/mL; MIC (Staphylococcus aureus [20]): 0.5 µg/mL; MIC (Staphylococcus aureus [21]): 2 µg/mL; MIC (Staphylococcus aureus [22]): 8 µg/mL; ED50 (Staphylococcus aureus [23]): 0.35 mg/kg; ED50 (Staphylococcus aureus [24]): 2.1 mg/kg; ED50 (Streptococcus pneumoniae [25]): 45 mg/kg; ED50 (Streptococcus pneumoniae [26]): 15 mg/kg
C[C@H]1COc2c(N3CCN(C)CC3)c(F)cc3c(=O)c(C(=O)O)cn1c23.C[C@H]1COc2c(N3CCN(C)CC3)c(F)cc3c(=O)c(C(=O)O)cn1c23.O [LEVOFLOXACIN],0.016 µg/mL,≤ 0.001 µg/mL,1 µg/mL,0.5 µg/mL,0.125 µg/mL,0.008 µg/mL,–,0.5 µg/mL,> 128 µg/mL,–,64 µg/mL,32 µg/mL,32 µg/mL,–,–,–,IC50 [16]: 5.44 µg/mL; IC50 [17]: 319 µg/mL; MIC (Staphylococcus aureus [18]): 0.125 µg/mL; MIC (Staphylococcus aureus [19]): 0.5 µg/mL; MIC (Staphylococcus aureus [20]): 8 µg/mL; MIC (Staphylococcus aureus [21]): 32 µg/mL; MIC (Staphylococcus aureus [22]): > 128 µg/mL
